Assay results taken from patent US6251932A, “Immunophilin ligands” (ASTA Medica AG, priority 1998, dated 2001).
Read-outs that look alike come from different tables or passages of the source.

Assays:
human cyclophilin B = human cyclophilin B (Homo sapiens, UniProt P23284); assay: PPIase test: inhibition of human cyclophilin B (Suc-Ala-Ala-Pro-Phe-Nan, chymotrypsin); type: biochemical; conditions: Compound [10 μmol]; preincubated 15 minutes at 4° C. with 10 nmol Cyp B
Method: The compounds of Formula I of the present invention are distinguished by immunophilin binding and inhibit isomerase activity. This prolyl isomerase activity is tested according to a conventional, well known enzyme test described in G. Fischer, H. Bang. Mech, Biomed. Biochim. Acta, 43, 1101-1111; G. Fischer, H. Bang, A Schellenberger, Biochim. Biophys. Acta, 791, 87-97, 1984; D. H. Rich et al., J. Med. Chem. 38, 4164-4170, 1995.
The compounds of Formula I of the present invention are distinguished by immunophilin binding and inhibit its peptidyl-prolyl cis-trans isomerase (PPlase) activity. […] This PPlase activity is determined by the aforementioned well known enzyme test.
The compounds of Formula I are preincubated at 4° C. for 15 minutes together with 10 nmol of Cyp B. The enzyme reaction is started using the test peptide Suc-Ala-Ala-Pro-Phe-Nan after addition of chymotrypsin and HEPES buffer. The change in extinction at 390 nm is then monitored and analyzed. The photometrically determined change in extinction results from two subreactions: a) the rapid chymotryptic cleavage of the trans peptide; b) the nonenzymatic cis-trans isomerization, which is catalysed by cyclophilins.

[1] = system: T cells stimulated with OKT-3; assay: IL-2 proliferation test: 3H-thymidine incorporation in T cells stimulated with OKT-3 (CD3-induced proliferation); type: cell-based; conditions: Compound [10 μmol], OKT-3 1 μg/ml, 45 hours; for inhibition: T-cell
Method: The IL-2 proliferation test is based on the incorporation of ^3 H-thymidine in T cells stimulated with OKT-3 (human anti-CD-3-antibodies) and is carried out by inoculating 100,000 T cells into microtitre plates in 150 μl of culture medium per well, stimulated by addition of OKT-3 (1 μg/ml) and incubated for 45 hours in each case with one of the compounds of Formula I. After this incubation time, 10 μl of the ^3 H-thymidine solution (0.5 μCi) are pipetted into each well. The mixture is then incubated in a 5% CO2 atmosphere at 37° C. for 6 hours. After harvesting the cells, the radioactivity is quantified in a B-counter.

FKBP = conditions: cited from earlier work
[2] = kidneys, neurotoxicity; cited from earlier work
[3] = system: bronchial asthma and underlying inflammations; conditions: animal experiments and clinical studies; cited from earlier work
IL-2 proliferation [4] = assay: Inhibition of IL-2 proliferation (published indoline-2-carboxamide); type: cell-based; conditions: 10 μmol; new measurements
Description: A further compound having immunosuppressant properties was discovered during the screening of substance mixtures (G. Quinkert, H. Bang and D. Reichert, Helv. Chim. Acta 1996, 79, 1260).

IL-2 proliferation [5] = conditions: published, cited from earlier work

human cyclophilin B, sequence (P23284 34-216): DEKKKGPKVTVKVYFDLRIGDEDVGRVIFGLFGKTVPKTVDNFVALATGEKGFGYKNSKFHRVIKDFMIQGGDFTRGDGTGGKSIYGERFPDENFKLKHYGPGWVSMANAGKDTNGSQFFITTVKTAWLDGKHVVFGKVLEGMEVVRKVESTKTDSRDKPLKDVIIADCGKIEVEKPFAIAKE

Compound | inhibition at 10 µM (human cyclophilin B) [%] | inhibition [1] [%] | further results
COC(=O)[C@H]1Cc2ccccc2N1S(=O)(=O)c1ccc(NC(C)=O)cc1 [Example 20, Methyl (2R)-[4-(acetylamino)phenylsulfonyl]indoline-2-carboxylate] | 0 to 20 | 15 | –
C=CC[C@@H]1/C=C(\C)C[C@H](C)C[C@H](OC)[C@H]2O[C@@](O)(C(=O)C(=O)N3CCCC[C@H]3C(=O)O[C@H](/C(C)=C/[C@@H]3CC[C@@H](O)[C@H](OC)C3)[C@H](C)[C@@H](O)CC1=O)[C@H](C)C[C@@H]2OC [FK 506] | – | – | binding to FKBP (FKBP): bind with high affinity; side effects [2]: manifold side effects, in particular of the kidneys, and neurotoxicity; therapeutic effect in bronchial asthma [3]: favorable therapeutic in bronchial asthma and underlying inflammations
CO[C@H]1C[C@@H]2CC[C@@H](C)[C@@](O)(O2)C(=O)C(=O)N2CCCC[C@H]2C(=O)O[C@H]([C@H](C)C[C@@H]2CC[C@@H](O)[C@H](OC)C2)CC(=O)[C@H](C)/C=C(\C)[C@@H](O)[C@@H](OC)C(=O)[C@H](C)C[C@H](C)/C=C/C=C/C=C/1C [rapamycin] | – | – | side effects [2]: manifold side effects, in particular of the kidneys, and neurotoxicity
COC(=O)/C=C/c1ccc(NC(=O)[C@@H]2Cc3ccccc3N2S(=O)(=O)c2ccc(NC(C)=O)cc2)cc1 [Example 13, Methyl (E)-({(2S)-1-[4(acetylamino)phenylsulfonyl]indoln-2-yl}-carbonyl)-4-(aminophenyl)acrylate] | 0 to 20 | 46 | –
CC(=O)Nc1ccc(S(=O)(=O)N2c3ccccc3C[C@H]2C(=O)N[C@@H](CC(C)C)C(=O)O)cc1 [Example 11] | – | – | Inhibition [%] of PPIase activity (human cyclophilin B): 40%; CD3-induced inhibition of proliferation in [%] [1]: 61%
Cc1ccc(S(=O)(=O)N2c3ccccc3C[C@H]2C(=O)N2c3ccccc3C[C@H]2C(=O)NCCN2CCOCC2)cc1 [Example 17, (2S)-1-[((2S)-1-(4-methylphenylsulfonyl)indolin-2-yl)carbonyl]-N^2-(N-ethylmorpholine)indoline-2-carbamide] | 40 | 57 | –
Cc1ccc(S(=O)(=O)N2c3ccccc3C[C@H]2C(=O)N2c3ccccc3C[C@H]2C(=O)Nc2ccncc2)cc1 [Example 19, (2S)-1-[((2S)-1-(4-methylphenylsulfonyl)indolin-2-yl)carbonyl]-(4-pyridine)indoline-2-carbamide] | 40 | 64 | –
COC(=O)[C@H]1Cc2ccccc2N1C(=O)[C@H]1Cc2ccccc2N1S(=O)(=O)c1ccc(NC(C)=O)cc1 (racemic) [Example 22, Methyl (2RS)-1-({(2RS)-1-[4-(acetylamino)phenylsulfonyl]indolin-2-yl}carbonyl)indoline-2-carboxylate] | 30 | 43 | –
CC(=O)Nc1ccc(S(=O)(=O)N2c3ccccc3C[C@@H]2C(=O)N2c3ccccc3C[C@@H]2C(=O)O)cc1 (racemic) [Example 23, (2RS)-1-({(2RS)-1-[4-(acetylamino)phenylsulfonyl]indolin-2-yl}-carbonyl)indoline-2-carboxylic acid] | 0 to 20 | 46 | –
COCCNC(=O)[C@@H]1Cc2ccccc2N1S(=O)(=O)c1cccc2cccnc12 [Example 10, (2S)-1-[(8-quinolinylsulfonyl)]-N-(2-methoxyethyl)indolinecarbamide] | 20 to 40 | 59 | –
COC(=O)[C@H](CCCCNC(=O)OCc1ccccc1)NC(=O)[C@@H]1Cc2ccccc2N1S(=O)(=O)c1ccc(NC(C)=O)cc1 [Example 12, (S)-N-{(2S)-1-[4-(acetylamino)phenylsulfonyl]indolin-2-yl}carbonyl-N-(benzyloxycarbonyl)lysine methyl ester] | 60 | 79 | –
indoline-2-carboxamide | – | – | IL-2-dependent inhibition of proliferation (IL-2 proliferation [4]): 29%; inhibition of IL-2 proliferation (IL-2 proliferation [5]; 1 μmol): 12%; inhibition of IL-2 proliferation (IL-2 proliferation [5]; 10 μmol): 77%
Cc1ccc(S(=O)(=O)N2c3ccccc3C[C@H]2C(=O)N2c3ccccc3C[C@H]2C(=O)NCCc2ccccn2)cc1 [Example 18, (2S)-1-[((2S)-1-(4-methylphenylsulfonyl)indolin-2-yl)carbonyl]-N^2-(ethyl-2-pyridine)indoline-2-carbamide] | 40 | 59 | –
CC(=O)Nc1ccc(S(=O)(=O)N2c3ccccc3C[C@@H]2C(=O)O)cc1 [Example 21, (2R)-[4-(acetylamino)phenylsulfonyl]indoline-2-carboxylic acid] | 0 to 20 | 12 | –
COCCNC(=O)[C@@H]1Cc2ccccc2N1C(=O)[C@@H]1Cc2ccccc2N1S(=O)(=O)c1cccc2ccccc12 [Example 14, (2S)-1-[((2S)-1-(1-naphthalenylsulfonyl)indolin-2-yl)carbonyl]-N-(2-methoxyethyl)indoline-2-carbamide] | 20 | 48 | –
Cc1ccc(S(=O)(=O)N2c3ccccc3C[C@H]2C(=O)N2c3ccccc3C[C@H]2C(=O)NCCCn2ccnc2)cc1 [Example 16, (2S)-1-[((2S)-1-(4-methylphenylsulfonyl)indolin-2-yl)carbonyl]-N^3-(N-propylimidazole)indoline-2-carbamide] | 20 to 40 | 54 | –
COCCNC(=O)[C@@H]1Cc2ccccc2N1C(=O)[C@@H]1Cc2ccccc2N1S(=O)(=O)c1ccc2ccccc2c1 [Example 15, (2S)-1-[((2S)-1-(2-Naphthalenylsulfonyl)indolin-2-yl)carbonyl]-N-(2-methoxyethyl)indoline-2-carbamide] | 20 | 56 | –

Now from value to compound, other results behind:

inhibition at 10 µM (human cyclophilin B) [%] | Compound | inhibition [1] [%] | further results
40 | COCCNC(=O)[C@@H]1Cc2ccccc2N1C(=O)[C@@H]1Cc2ccccc2N1S(=O)(=O)c1ccc(N)cc1 [Example 6, (2S)-1-[((2S)-1-(4-aminophenylsulfonyl)indolin-2-yl)carbonyl]-N-(2-methoxyethyl)indoline-2-carbamide] | 84 | –
20 to 40 | COCCNC(=O)C1Cc2ccccc2N1C(=O)C1Cc2ccccc2N1S(=O)(=O)c1ccc(NC(C)=O)cc1 (racemic) [Example 5, (2R,S)-1-[((2R,S)-1-(4-acetylaminophenylsulfonyl)indolin-2-yl)-carbonyl]-N-(2-methoxyethyl)indoline-2-carbamide] | 85 | –
60 | COCCNC(=O)[C@H]1Cc2ccccc2N1C(=O)[C@H]1Cc2ccccc2N1S(=O)(=O)c1ccc(NC(C)=O)cc1 [Example 4] | 85 | –
40 | COCCNC(=O)[C@@H]1Cc2ccccc2N1C(=O)[C@@H]1CCCN1S(=O)(=O)c1ccc(N)cc1 [Example 7, (^2 S)-1-[((2S)-1-(4-aminophenylsulfonyl)prolyl)carbonyl]-N-(2-methoxyethyl)indoline-2-carbamide] | 79 | –
40 | COCCNC(=O)[C@H]1Cc2ccccc2N1C(=O)[C@@H]1Cc2ccccc2N1S(=O)(=O)c1ccc(NC(C)=O)cc1 [Example 2] | 85 | –
40 | COCCNC(=O)[C@@H]1Cc2ccccc2N1C(=O)[C@H]1Cc2ccccc2N1S(=O)(=O)c1ccc(NC(C)=O)cc1 [Example 3] | 84 | –
40 to 60 | COCCNC(=O)[C@@H]1Cc2ccccc2N1C(=O)C1CCN(S(=O)(=O)c2ccc(NC(C)=O)cc2)CC1 [Example 9] | 75 | –
40 | COCCNC(=O)[C@@H]1Cc2ccccc2N1C(=O)[C@@H]1Cc2ccccc2N1S(=O)(=O)c1ccc(NC(C)=O)cc1 [Example 1] | 83 | –
40 to 60 | COCCNC(=O)[C@@H]1Cc2ccccc2N1C(=O)C1CCN(S(=O)(=O)c2ccc(N)cc2)CC1 [Example 8, (2S)-1-[((2S)-1-(4-aminophenylsulfonyl)-4-piperidinyl)carbonyl]-N-(2-methoxyethyl)indoline-2-carbamide] | 71 | –
